Each block holds one compound with its values, some of them ahead of it. Active and inactive are the calls of the source.
Columns and labels:
[1] = molecular target: DNA dC->dU-editing enzyme APOBEC-3G (Homo sapiens, UniProt Q9HC16); format: functional;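 further: Dose-response counterscreen measuring inhibition of APOBEC3G DNA deaminase activity, run while confirming APOBEC3A inhibitors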
[2] = molecular target: DNA dC->dU-editing enzyme APOBEC-3A (Homo sapiens, UniProt P31941); assay: Dose Response confirmation of small molecule APOBEC3A DNA Deaminase Inhibitors via a fluorescence-based single-stranded DNA deaminase assay. [Related pubchem assays (depositor defined):AID493011, AID493024]; format: functional
[3] = inhibitors of Vif binding to APOBEC3G peptide, primary screen, biochemical, TR-FRET, GST-Vif 1-94, biotin-A3G peptide, dose response retest (AID 1117319); format: functional;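 further: TR-FRET signal of purified GST-Vif binding a biotinylated A3G peptide; inhibitors lower the FRET signal by blocking Vif and A3G binding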
Cytochrome P450 2C9 = Cytochrome P450 2C9 (Homo sapiens, UniProt P11712)
[4] = molecular target: T1, Ubiquitin-conjugating enzyme E2 N (Homo sapiens, UniProt P61088); format: functional
T1 sequence (P61088 whole entry): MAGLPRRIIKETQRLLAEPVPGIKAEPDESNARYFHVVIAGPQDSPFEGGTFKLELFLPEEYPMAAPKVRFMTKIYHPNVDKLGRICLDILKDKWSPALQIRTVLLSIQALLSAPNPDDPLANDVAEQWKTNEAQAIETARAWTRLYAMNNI

[5] = molecular target: T1, Ubiquitin-conjugating enzyme E2 N; format: functional; remark: listed apart in the source
Bcl-2-related protein A1 = molecular target: T2, Bcl-2-related protein A1 (Mus musculus, UniProt Q07440); format: functional;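 further: confirmatory dose–response counterscreen on Bfl-1, used to check hits from a UBC13 polyubiquitin inhibitor campaign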
T2 sequence (Q07440 whole entry): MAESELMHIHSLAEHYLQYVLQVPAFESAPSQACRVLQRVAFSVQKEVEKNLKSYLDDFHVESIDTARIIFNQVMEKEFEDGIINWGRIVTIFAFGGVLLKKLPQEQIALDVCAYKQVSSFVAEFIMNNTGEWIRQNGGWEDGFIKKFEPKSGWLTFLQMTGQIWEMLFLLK

[6] = molecular target: T3, Histone-lysine N-methyltransferase NSD2 (Homo sapiens, UniProt O96028); format: biochemical
T3 sequence (O96028 whole entry): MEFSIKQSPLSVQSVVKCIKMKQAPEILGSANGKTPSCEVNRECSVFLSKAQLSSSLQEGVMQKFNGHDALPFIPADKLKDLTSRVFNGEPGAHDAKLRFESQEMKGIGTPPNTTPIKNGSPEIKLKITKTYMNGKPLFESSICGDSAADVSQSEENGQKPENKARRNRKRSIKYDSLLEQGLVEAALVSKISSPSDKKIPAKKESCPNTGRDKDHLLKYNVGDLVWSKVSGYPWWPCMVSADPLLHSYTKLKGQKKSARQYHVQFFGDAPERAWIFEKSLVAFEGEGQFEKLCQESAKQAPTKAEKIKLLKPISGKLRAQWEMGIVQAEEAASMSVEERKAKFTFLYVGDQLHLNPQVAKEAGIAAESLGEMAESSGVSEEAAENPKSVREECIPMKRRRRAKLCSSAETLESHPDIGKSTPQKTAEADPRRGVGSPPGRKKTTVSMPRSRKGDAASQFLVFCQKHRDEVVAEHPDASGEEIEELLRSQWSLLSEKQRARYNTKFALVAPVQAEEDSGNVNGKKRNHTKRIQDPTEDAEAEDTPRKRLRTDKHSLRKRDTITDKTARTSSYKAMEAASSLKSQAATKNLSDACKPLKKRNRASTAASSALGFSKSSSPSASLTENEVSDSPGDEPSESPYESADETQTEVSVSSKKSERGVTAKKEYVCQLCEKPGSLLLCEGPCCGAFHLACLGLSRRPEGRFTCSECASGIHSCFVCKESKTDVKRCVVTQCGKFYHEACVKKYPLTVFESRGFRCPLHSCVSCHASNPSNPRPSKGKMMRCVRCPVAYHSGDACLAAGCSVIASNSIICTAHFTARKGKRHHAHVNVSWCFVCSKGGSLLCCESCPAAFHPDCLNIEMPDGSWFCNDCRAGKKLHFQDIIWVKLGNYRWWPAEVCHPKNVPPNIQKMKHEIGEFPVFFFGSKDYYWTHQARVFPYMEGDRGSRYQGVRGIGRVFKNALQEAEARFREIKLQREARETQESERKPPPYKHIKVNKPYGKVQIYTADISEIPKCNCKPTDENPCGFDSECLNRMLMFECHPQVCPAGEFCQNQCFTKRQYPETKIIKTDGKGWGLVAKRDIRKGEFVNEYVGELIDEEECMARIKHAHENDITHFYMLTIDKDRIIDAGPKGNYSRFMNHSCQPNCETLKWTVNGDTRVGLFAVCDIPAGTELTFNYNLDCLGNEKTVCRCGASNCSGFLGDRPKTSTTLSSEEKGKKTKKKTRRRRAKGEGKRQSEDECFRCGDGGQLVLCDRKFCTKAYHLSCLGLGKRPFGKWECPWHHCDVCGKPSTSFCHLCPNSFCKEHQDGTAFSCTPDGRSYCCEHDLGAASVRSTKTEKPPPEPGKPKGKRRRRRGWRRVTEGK

[7] = molecular target: T4, Short transient receptor potential channel 4 (Mus musculus, UniProt Q9QUQ5); assay: mouse TRPC4 channel activators, dose response, cell-based, HEK293 TRPC4/mu-opioid, Fluo-4 calcium (AID 434937); format: functional
T4 sequence (Q9QUQ5 whole entry): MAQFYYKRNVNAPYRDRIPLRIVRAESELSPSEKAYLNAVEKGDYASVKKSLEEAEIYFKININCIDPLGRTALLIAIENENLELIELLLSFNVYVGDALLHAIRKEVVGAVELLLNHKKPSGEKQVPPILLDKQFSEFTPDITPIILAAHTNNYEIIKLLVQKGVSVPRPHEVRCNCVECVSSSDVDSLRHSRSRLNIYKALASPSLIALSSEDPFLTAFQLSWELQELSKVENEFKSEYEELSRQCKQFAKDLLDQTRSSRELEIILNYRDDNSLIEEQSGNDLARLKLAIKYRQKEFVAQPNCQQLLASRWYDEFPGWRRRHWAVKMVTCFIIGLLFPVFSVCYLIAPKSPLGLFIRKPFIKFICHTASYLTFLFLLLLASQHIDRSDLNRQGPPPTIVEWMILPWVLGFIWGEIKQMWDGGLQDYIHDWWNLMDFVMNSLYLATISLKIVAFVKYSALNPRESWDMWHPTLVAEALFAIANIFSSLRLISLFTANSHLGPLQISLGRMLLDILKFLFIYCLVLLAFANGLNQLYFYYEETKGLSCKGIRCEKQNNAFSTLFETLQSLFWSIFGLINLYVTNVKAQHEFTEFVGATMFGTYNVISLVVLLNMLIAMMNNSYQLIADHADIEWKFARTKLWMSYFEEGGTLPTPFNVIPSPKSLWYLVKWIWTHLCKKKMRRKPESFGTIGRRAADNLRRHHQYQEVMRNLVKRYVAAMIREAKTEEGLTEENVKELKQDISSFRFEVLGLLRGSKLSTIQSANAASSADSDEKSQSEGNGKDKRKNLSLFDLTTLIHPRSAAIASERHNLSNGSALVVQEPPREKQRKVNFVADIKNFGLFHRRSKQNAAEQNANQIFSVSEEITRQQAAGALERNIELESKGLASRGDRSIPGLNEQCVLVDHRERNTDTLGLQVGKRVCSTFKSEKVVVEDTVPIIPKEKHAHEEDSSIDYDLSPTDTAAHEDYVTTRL

[8] = P. falciparum Dd2 growth inhibitors, dose response, SYBR Green, cherry-picked samples (AID 1159567); format: functional, cell-based
[9] = P. falciparum Dd2 growth inhibitors, dose response, SYBR Green, dry powder samples (AID 1159566); format: functional, cell-based;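 further: potency for growth inhibition with lower SYBR green DNA signal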
[10] = P. falciparum ATP4 D1247Y mutant growth inhibitors, dose response, NITD609-resistant line, SYBR Green, dry powder (AID 1159571); format: functional, cell-based;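 further: parasites synchronized at ring stage by sorbitol before testing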
[11] = P. falciparum 3D7-ScDHODH growth inhibitors, dose response, SYBR Green, dry powder samples (AID 1159570); format: functional, cell-based;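 further: parasite growth measured after 72 hours of compound exposure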
[12] = HepG2 cell cytotoxicity, dose response, cytotoxicity control, plate reader, dry powder samples (AID 1159569); format: functional, cell-based;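 further: inhibitor potency with signal falling toward the positive control level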
Cytochrome P450 2D6 = Cytochrome P450 2D6 (Homo sapiens, UniProt P10635);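 further: CYP2D6 member of a cytochrome P450 panel assay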
[13] = inhibitors of intracellular T. cruzi replication, confirmation, NIH3T3 host cells, beta-gal luminescence (AID 2044); format: functional, cell-based;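 further: intracellular parasites grown in NIH/3T3 mouse fibroblasts as host cells; luminescent beta-galactosidase reporter signal from transgenic T. cruzi replicating inside host cells; inhibitors lower the luminescence signal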
[14] = cytotoxicity toward NIH3T3 fibroblasts, dose response, counter-screen, cell-based, ATP luminescence, mouse fibroblasts (AID 2010); format: functional;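 further: cells exposed to compound for about 90 hours before reading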
[15] = molecular target: T5, Zinc finger protein mex-5 (Caenorhabditis elegans, UniProt Q9XUB2); assay: MEX-5/TCR-2 RNA interaction inhibitors, dose response, biochemical, C. elegans, fluorescence polarization (AID 1960)
T5 sequence (Q9XUB2 whole entry): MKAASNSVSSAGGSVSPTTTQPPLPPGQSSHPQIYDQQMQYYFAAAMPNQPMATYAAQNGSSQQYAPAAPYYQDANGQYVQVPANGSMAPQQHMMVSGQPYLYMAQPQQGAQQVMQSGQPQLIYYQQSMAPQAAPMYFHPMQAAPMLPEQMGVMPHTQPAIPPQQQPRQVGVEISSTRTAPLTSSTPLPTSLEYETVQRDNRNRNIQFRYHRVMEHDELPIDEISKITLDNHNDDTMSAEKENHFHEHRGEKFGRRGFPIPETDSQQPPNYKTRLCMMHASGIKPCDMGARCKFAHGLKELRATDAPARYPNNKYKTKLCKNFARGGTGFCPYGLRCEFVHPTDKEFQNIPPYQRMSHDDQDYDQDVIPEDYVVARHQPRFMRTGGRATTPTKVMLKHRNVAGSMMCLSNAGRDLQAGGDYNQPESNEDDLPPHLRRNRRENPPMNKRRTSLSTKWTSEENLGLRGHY

[16] = molecular target: T6, RNA-binding protein pos-1 (Caenorhabditis elegans, UniProt G5EF15); assay: inhibitors of POS-1/mex-3 RNA binding, dose response, biochemical, fluorescence polarization (AID 1964);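 further: purified POS-1 fused to maltose binding protein made in E. coli; potency of compounds blocking POS-1 binding to fluorescent RNA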
T6 sequence (G5EF15 whole entry): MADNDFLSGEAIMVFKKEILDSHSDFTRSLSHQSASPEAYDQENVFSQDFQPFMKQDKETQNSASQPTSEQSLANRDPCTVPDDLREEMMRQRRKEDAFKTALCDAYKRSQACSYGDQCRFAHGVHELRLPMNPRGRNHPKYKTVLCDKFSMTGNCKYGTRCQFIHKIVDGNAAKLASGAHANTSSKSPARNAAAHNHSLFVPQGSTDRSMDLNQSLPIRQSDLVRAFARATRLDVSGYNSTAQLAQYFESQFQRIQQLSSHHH

Sequence of DNA dC->dU-editing enzyme APOBEC-3G (Q9HC16 whole entry): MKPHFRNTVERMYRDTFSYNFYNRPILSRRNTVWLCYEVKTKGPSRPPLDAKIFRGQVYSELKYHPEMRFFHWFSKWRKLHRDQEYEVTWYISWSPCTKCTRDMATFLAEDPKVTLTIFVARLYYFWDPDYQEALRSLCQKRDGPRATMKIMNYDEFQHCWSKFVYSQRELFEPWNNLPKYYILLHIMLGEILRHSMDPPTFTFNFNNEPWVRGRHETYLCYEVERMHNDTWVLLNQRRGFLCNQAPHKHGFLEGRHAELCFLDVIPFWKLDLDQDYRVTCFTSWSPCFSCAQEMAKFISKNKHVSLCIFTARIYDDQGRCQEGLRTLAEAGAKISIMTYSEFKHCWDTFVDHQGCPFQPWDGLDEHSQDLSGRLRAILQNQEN
Sequence of DNA dC->dU-editing enzyme APOBEC-3A (P31941 whole entry): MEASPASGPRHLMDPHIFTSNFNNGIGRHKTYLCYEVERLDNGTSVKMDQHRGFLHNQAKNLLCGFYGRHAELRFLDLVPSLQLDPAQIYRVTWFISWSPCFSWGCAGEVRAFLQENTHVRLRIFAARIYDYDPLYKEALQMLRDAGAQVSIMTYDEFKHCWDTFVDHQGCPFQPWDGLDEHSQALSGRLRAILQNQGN
Sequence of Cytochrome P450 2C9 (P11712 whole entry): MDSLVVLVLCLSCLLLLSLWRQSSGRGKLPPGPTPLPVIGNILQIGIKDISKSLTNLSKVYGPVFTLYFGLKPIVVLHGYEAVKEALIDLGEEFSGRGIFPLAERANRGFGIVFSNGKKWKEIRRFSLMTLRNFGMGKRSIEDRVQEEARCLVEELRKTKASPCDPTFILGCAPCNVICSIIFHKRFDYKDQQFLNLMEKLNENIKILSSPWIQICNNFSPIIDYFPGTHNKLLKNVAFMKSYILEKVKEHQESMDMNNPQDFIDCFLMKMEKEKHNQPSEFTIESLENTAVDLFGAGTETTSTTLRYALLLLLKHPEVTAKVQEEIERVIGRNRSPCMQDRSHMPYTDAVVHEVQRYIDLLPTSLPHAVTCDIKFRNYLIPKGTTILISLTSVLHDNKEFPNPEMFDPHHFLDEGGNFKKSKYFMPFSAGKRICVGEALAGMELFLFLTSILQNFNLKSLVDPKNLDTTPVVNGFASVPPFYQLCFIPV
Sequence of Cytochrome P450 2D6 (P10635 whole entry): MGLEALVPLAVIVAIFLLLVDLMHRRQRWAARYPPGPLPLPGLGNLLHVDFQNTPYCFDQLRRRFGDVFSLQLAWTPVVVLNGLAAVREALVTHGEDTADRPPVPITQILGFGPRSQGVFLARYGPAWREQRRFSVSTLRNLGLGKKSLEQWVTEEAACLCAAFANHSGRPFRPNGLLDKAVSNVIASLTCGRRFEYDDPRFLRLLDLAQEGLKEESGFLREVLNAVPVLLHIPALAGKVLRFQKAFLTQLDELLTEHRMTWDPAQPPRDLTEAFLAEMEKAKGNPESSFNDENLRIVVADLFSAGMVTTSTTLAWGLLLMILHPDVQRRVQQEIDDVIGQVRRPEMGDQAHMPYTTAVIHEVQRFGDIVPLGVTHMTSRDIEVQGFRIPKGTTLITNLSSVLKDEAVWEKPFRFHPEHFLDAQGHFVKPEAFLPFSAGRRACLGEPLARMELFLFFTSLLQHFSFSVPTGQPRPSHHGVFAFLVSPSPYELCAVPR

AC50 (Cytochrome P450 2C9): inconclusive
Compound: Clc1ccc(CN2CCCN(Cc3ccc(Cl)cc3)C2c2cc3ccccc3c3ccccc23)cc1

IC50 [4]: 8.19 µM (active)
IC50 [5]: 7.29 µM (active)
IC50 (Bcl-2-related protein A1): > 20 µM (inactive)
Compound: Cc1ccc(C(=O)NNC(=O)c2nn(-c3ccc(F)cc3)ccc2=O)cc1

IC50 [3]: > 100 µM (active)
Compound: Nc1nc(SCc2nc(-c3ccccc3)no2)nc(O)c1-c1ccccc1

IC50 [4]: 18.1 µM (active)
IC50 [5]: 19.1 µM (active)
IC50 (Bcl-2-related protein A1): > 20 µM (inactive)
Compound: O=C1c2cccc3cccc(c23)C(=O)N1Cc1cccnc1

IC50 [4]: > 20 µM (inactive)
IC50 [5]: 18.4 µM (active)
IC50 (Bcl-2-related protein A1): > 20 µM (inactive)
Compound: Cc1ccc2cc3c(nc2c1)N(c1ccccc1)CC3

IC50 [4]: 8.28 µM (active)
IC50 [5]: 9 µM (active)
EC50 [15]: > 300 µM (not active)
IC50 (Bcl-2-related protein A1): 5.82 µM (active)
EC50 [16]: > 300 µM (not active)
Compound: Nc1ccc2[nH]c(-c3cccc(-c4nc5cc(N)ccc5[nH]4)n3)nc2c1

Second part, the compound before the results:

Compound: C=CC[n+]1c2n(c3ccccc3c1=O)CCCCC2
IC50 [1]: 6.84 µM (active)
IC50 [2]: 3.57 µM (active)

Compound: CN1CCN(C(=O)c2ccc(N(C)S(=O)(=O)c3cccs3)cc2)CC1
IC50 [3]: > 100 µM (active)

Compound: CNCCCOc1ccc2c(c1)CCC2
AC50 [6]: > 20 µM (inactive)
EC50 [7]: 4.73 µM (active)

Compound: COc1ccc2c3c([nH]c2c1)[C@H](CO)N(C(=O)Nc1ccc(F)cc1)CC31CCN(Cc2cc(-c3ccccc3)on2)CC1
AC50 [8]: 1.43 µM (active)
AC50 [9]: 0.452 µM (active)
AC50 [10]: 0.876 µM (active)
AC50 [11]: 1.47 µM (active)
AC50 [12]: 30.3 µM (active)

Compound: O=C(NCc1ccco1)C1CCCN(S(=O)(=O)c2cccc3nsnc23)C1 (configuration not stated)
IC50 [3]: > 100 µM (active)

Compound: O=c1cc(O)nc(SCc2ccccc2Cl)[nH]1
IC50 [3]: > 100 µM (active)

Compound: COc1cccc(C(=O)Nc2cc(C(F)(F)F)ccc2Cl)c1
AC50 (Cytochrome P450 2D6): 28.2 µM (inconclusive)
AC50 (Cytochrome P450 2C9): inconclusive

Compound: N#Cc1ccc(-c2ccc([C@@H]3[C@@H]4CN(C(=O)C5CCCC5)C[C@H]3N4)cc2)cc1
AC50 [8]: 2.72 µM (active)
AC50 [9]: 2.25 µM (active)
AC50 [10]: 3.53 µM (active)
AC50 [11]: 3.48 µM (active)
AC50 [12]: 51 µM (active)

Compound: Cc1ccc(N(C(=O)c2snc(C(N)=O)c2N)C(C(=O)NCCC(C)C)c2ccco2)cc1 (configuration not stated)
IC50 [4]: 10.9 µM (active)
IC50 [5]: 17 µM (active)
EC50 [13]: 1.1 µM (active)
EC50 [14]: > 60 µM (not active)
IC50 (Bcl-2-related protein A1): > 20 µM (inactive)

Compound: O=C(O)c1cccc(-n2cccc2/C=C2\NC(=O)N(Cc3ccc(F)cc3)C2=O)c1
IC50 [1]: 29.7 µM (active)
EC50 [15]: > 150 µM (not active)
IC50 [2]: 11.4 µM (active)
EC50 [16]: > 300 µM (not active)

Compound: CN1c2ccsc2/C(=N/NC(=O)c2c(F)cccc2F)CS1(=O)=O
IC50 [3]: > 100 µM (active)

Compound: C[C@@H]1CN([C@H](C)CO)C(=O)c2cccc(NC(=O)c3nc4ccccc4s3)c2O[C@H]1CN(C)C(=O)NC1CCCCC1
AC50 [8]: 2.73 µM (active)
AC50 [9]: 0.196 µM (active)
AC50 [10]: 0.152 µM (active)
AC50 [11]: 0.114 µM (active)
AC50 [12]: > 100 µM (inactive)

Compound: O=C(O)c1cc2nc(-c3cccs3)cc(C(F)(F)F)n2n1
IC50 [1]: > 100 µM (inactive)
IC50 [2]: 12.1 µM (active)

From ChEMBL document CHEMBL1201862, “PubChem BioAssay data set” (2004)
